Experimental data as given in the supplement of paper PMC8671470.

Columns and labels:
Details in all cases: 72 h
KCL-22 [1] = tested on: KCL-22
Summary of the method: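 The IC50 was read from log-logistic dose–response fits. Fifteen myeloid leukaemia lines were exposed for 72 h at 37 °C with 5% CO2 to five tenfold doses from 1 to 10,000 nM in duplicate. ATP luminescence, normalised to vehicle and to a 10 µM positive control, was fitted with four parameters.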

BV-173 = assay: cell viability (% survival relative to DMSO control, bortezomib = 0%); higher = less cytotoxic
Summary of the method: (§1)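 Seeding density for each of the 10 AML and 5 CML cell lines was titrated to the linear growth range. Cells went into 384-well plates pre-printed in duplicate with compounds at 1, 10, 100, 1000 or 10000 nM and were held for 72 h at 37 °C with 5% CO2. CellTiter-Glo luminescence then provided the readout. Percent survival is expressed relative to vehicle at 100% and a 10 µM positive control at 0%, averaged over duplicates.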

HL-60 [2] = assay: as above
Summary of the method: as §1

THP-1 = assay: as above
Summary of the method: as §1

HEL = assay: as above
Summary of the method: as §1

ML-2 = assay: as above
Summary of the method: as §1

MOLM-13 = assay: as above
Summary of the method: as §1

KCL-22 [3] = assay: as above
Summary of the method: as §1

SHI-1 = assay: as above
Summary of the method: as §1

NOMO-1 = assay: as above
Summary of the method: as §1

K-562 = assay: as above
Summary of the method: as §1

KG-1 = assay: as above
Summary of the method: as §1

KU-812 = assay: as above
Summary of the method: as §1

LAMA-84 = assay: as above
Summary of the method: as §1

Mono-Mac-6 = assay: as above
Summary of the method: as §1

MV4-11 = assay: as above
Summary of the method: as §1

HL-60 [4] = assay: cell viability (% survival relative to DMSO control); higher = less cytotoxic
Summary of the method: (§2)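 A rescreen of the full library used HL-60 cells in RPMI 1640 with 10% FBS on 384-well plates, run in duplicate at five tenfold concentrations (1–10,000 nM). Each screen included DMSO or 100 nM of one of three metabolic inhibitors and ran 72 h at 37 °C, 5% CO2. CellTiter-Glo viability was scaled between DMSO and 10 μM proteasome-inhibitor wells. Any area under the curve comes from four-parameter log-logistic fits with drc and PharmacoGx.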

HL-60 [5] = assay: area under dose-response curve (viability, 1 nM-10 uM) (fraction (0-1)); higher = more sensitive
Summary of the method: as §2

Cl.NC1=CCCN1Cc1nc(O)nc(O)c1Cl [Tipiracil]
Details	IC50 (cell viability) [µM]
KCL-22 [1]	> 10

Details	area under dose-response curve, co-treatment: AZD3965 100 nM	area under dose-response curve, co-treatment: DMSO vehicle	area under dose-response curve, co-treatment: GSK2194069 100 nM	area under dose-response curve, co-treatment: pictilisib 100 nM	cell viability, 1 nM [%]	cell viability, 10 nM [%]	cell viability, 100 nM [%]	cell viability, 1000 nM [%]	cell viability, 10000 nM [%]
BV-173	–	–	–	–	108	95.1	97.9	99.5	106
HEL	–	–	–	–	122	102	112	111	103
HL-60 [2]	–	–	–	–	98.8	97.2	127	130	119
HL-60 [5]	< 0.0301	< 0.0301	< 0.0301	< 0.0301	–	–	–	–	–
K-562	–	–	–	–	106	99.8	105	115	106
KCL-22 [3]	–	–	–	–	115	90.2	105	114	90.8
KG-1	–	–	–	–	98.2	95.1	111	107	111
KU-812	–	–	–	–	101	88.8	104	108	99.7
LAMA-84	–	–	–	–	115	94.8	98.7	110	102
ML-2	–	–	–	–	108	92.7	114	105	104
MOLM-13	–	–	–	–	104	96.3	122	121	93.6
MV4-11	–	–	–	–	107	105	109	104	106
Mono-Mac-6	–	–	–	–	122	96.2	107	100	96.5
NOMO-1	–	–	–	–	106	100	100	100	99.2
SHI-1	–	–	–	–	107	106	125	113	116
THP-1	–	–	–	–	102	97.2	102	101	101

cell viability [%], HL-60 [4]
Details	0.001 µM	0.01 µM	0.1 µM	1 µM	10 µM
co-treatment: AZD3965 100 nM	98.3	102	99.7	101	99.5
co-treatment: DMSO vehicle	97.2	94.3	102	99.34	100.1
co-treatment: GSK2194069 100 nM	98.7	97.9	97.8	98.6	88
co-treatment: pictilisib 100 nM	93	100	93.7	97	86.7

O=NN(CCCl)C(=O)NCCCl [Carmustine]
Details	IC50 (cell viability) [µM]
KCL-22 [1]	> 10

Details	area under dose-response curve, co-treatment: AZD3965 100 nM	area under dose-response curve, co-treatment: DMSO vehicle	area under dose-response curve, co-treatment: GSK2194069 100 nM	area under dose-response curve, co-treatment: pictilisib 100 nM	cell viability, 1 nM [%]	cell viability, 10 nM [%]	cell viability, 100 nM [%]	cell viability, 1000 nM [%]	cell viability, 10000 nM [%]
BV-173	–	–	–	–	102	120	105	95.3	78.5
HEL	–	–	–	–	98.3	114	111	103	101
HL-60 [2]	–	–	–	–	98.8	101	98.1	97.8	101
HL-60 [5]	< 0.0301	< 0.0301	< 0.0301	< 0.0301	–	–	–	–	–
K-562	–	–	–	–	95.1	123	75.8	111	101
KCL-22 [3]	–	–	–	–	83.1	122	104	88.8	97.4
KG-1	–	–	–	–	110	114	108	102	97.5
KU-812	–	–	–	–	99.4	118	114	98.5	97.1
LAMA-84	–	–	–	–	98.7	93.1	105	92.9	99.3
ML-2	–	–	–	–	104	122	106	96	106
MOLM-13	–	–	–	–	97.6	106	98.2	106	101
MV4-11	–	–	–	–	96.3	104	103	106	83.4
Mono-Mac-6	–	–	–	–	106	97.8	99.8	109	117
NOMO-1	–	–	–	–	102	103	104	100	99
SHI-1	–	–	–	–	87	109	97.6	128	104
THP-1	–	–	–	–	97.6	107	102	101	98.9

cell viability [%], HL-60 [4]
Details	0.001 µM	0.01 µM	0.1 µM	1 µM	10 µM
co-treatment: AZD3965 100 nM	95.3	95	99.5	98.8	100.8
co-treatment: DMSO vehicle	96.8	102	100.48	97.8	105
co-treatment: GSK2194069 100 nM	89.9	97.4	98.9	97.5	104
co-treatment: pictilisib 100 nM	86.1	83.1	110	93.7	118
